{"source": "patent US8187572B2", "about": "“Diabetogenic rat model” (Hoffmann-La Roche Inc., priority 2005, dated 2012)", "type_in_all_cases": "in vivo, rat", "key": {"ZDF rats [1]": {"tested_on": "ZDF rats", "assay": "Oral glucose tolerance test (OGTT) with fasting parameters and HOMA in Pioglitazone-treated ZDF rats", "conditions": "for HOMA (insulin resistance index) / fasting insulin levels: after 6 weeks of treatment", "experimental": "ZDF and ZL rats were ordered at the age of 5 W. After arrival and following 1 week of adaptation, 1 ml of blood was collected retro-orbitally after a short narcosis (isoflurane) in 6 W-old rats. […] A group of 10 ZL rats was formed and followed as a control group along the study duration (FIG. 3). Three groups of ZDF rats receive either vehicle (untreated) or Pioglitazone (treated) as food Admix. In each untreated/treated group of ZDF rats, one is fed a high fat diet during 11 weeks (group_full), during 4 weeks (group_mild) or during 2 weeks (group_low). Treatment was administered orally and prepared as food-admix. This mode of administration was preferred over oral gavage to reduce stress to the animals, avoid dosing errors and minimize handling. Pioglitazone (sufficient for 90 kg food) was dissolved in 18 liters of water. For the three treatment groups of 10 rats each, 6 liters of solution was combined with 30 kg of the diabetogenic diet (KLIBA 2437 with 7% of fat) or 12 liters were mixed with 60 Kg of the chow diet (Kliba 3436). The food was carefully dried at a temperature not exceeding 40° C. and then pelleted. […] The graphs and tables present the data according to expected daily dose. […] Blood was then collected in conscious animals (tail vein) for baseline glucose and insulin measurements. […] Studying the evolution of blood glucose concentration along time after a load of glucose will give information about the ability of the organism to use glucose. Using the trapezoidal rule, glucose tolerance was calculated as area under the curve (AUC) of glucose concentration during 120 min and the change from baseline was calculated (delta AUC). HOMA index is also assessed during the OGTT by considering fasting insulin and fasting blood glucose (FBG) levels. HOMA: [FBG (mM)*(Fasting Insulin (μU))/22.5]. HOMA-index translates peripheral insulin resistance. Measurement of insulin was performed using Mercodia Rat Insulin ELISA kit."}, "ZDF rats [2]": {"tested_on": "ZDF rats", "assay": "Intervention treatment with Pioglitazone in ZDF rats: post-prandial blood and plasma parameters", "conditions": "for average plasma TG level: at the end of treatment", "experimental": "ZDF and ZL rats were ordered at the age of 5 W. After arrival and following 1 week of adaptation, 1 ml of blood was collected retro-orbitally after a short narcosis (isoflurane) in 6 W-old rats. […] A group of 10 ZL rats was formed and followed as a control group along the study duration (FIG. 3). Three groups of ZDF rats receive either vehicle (untreated) or Pioglitazone (treated) as food Admix. In each untreated/treated group of ZDF rats, one is fed a high fat diet during 11 weeks (group_full), during 4 weeks (group_mild) or during 2 weeks (group_low). Treatment was administered orally and prepared as food-admix. This mode of administration was preferred over oral gavage to reduce stress to the animals, avoid dosing errors and minimize handling. Pioglitazone (sufficient for 90 kg food) was dissolved in 18 liters of water. For the three treatment groups of 10 rats each, 6 liters of solution was combined with 30 kg of the diabetogenic diet (KLIBA 2437 with 7% of fat) or 12 liters were mixed with 60 Kg of the chow diet (Kliba 3436). The food was carefully dried at a temperature not exceeding 40° C. and then pelleted. […] The graphs and tables present the data according to expected daily dose. […] Blood sampling was always performed in the morning (9-11 am) 2-to-5 hours after feeding session and 2 h after last oral dosing (food was removed at 7:00 am). Blood (≈200 μl) was harvested retro-orbitally from slightly anesthetized rats (isoflurane) into tubes containing EDTA and kept on ice bed until centrifugation (6000 RPM for 20 minutes at 4° C.). […] Main plasma biochemical parameters (glucose(Gluco-quant, e.g. […] Quantification of HbA1c (%) was performed in whole blood, using an immuno-turbidimetric assay (Tina-quant, e.g. 11822039 from Roche Molecular Diagnostics). Glycosylated haemoglobin (HbA1c) is formed by the non-enzymatic covalent attachment of glucose to normal haemoglobin (HbA). […] HbA1c is a predictor of diabetic complications and interventions that reduce HbA1c correspondingly reduce the risk of complications (UKPDS, 1998). […] Commercially available ELISA kits (LINCO®) were used to quantify plasma concentration of insulin and adiponectin. Adiponectin is an adipokine which is […] and fasting plasma insulin concentration (Goldstein, 2002). Adiponectin plasma concentrations are decreased in […] patients and despite the fact that it is produced by adipocytes, as an individual becomes more obese, the adiponectine is decreased and insulin resistance increases ([…] et al., 1999)."}, "[3]": {"assay": "Body weight, food intake and water intake of Pioglitazone-treated ZDF rats", "conditions": "ZDF rats group_low, group_mild and group_full; chronic treatment (7 weeks), 10 mg/kg/d food-admix", "experimental": "ZDF and ZL rats were ordered at the age of 5 W. After arrival and following 1 week of adaptation, 1 ml of blood was collected retro-orbitally after a short narcosis (isoflurane) in 6 W-old rats. […] A group of 10 ZL rats was formed and followed as a control group along the study duration (FIG. 3). Three groups of ZDF rats receive either vehicle (untreated) or Pioglitazone (treated) as food Admix. In each untreated/treated group of ZDF rats, one is fed a high fat diet during 11 weeks (group_full), during 4 weeks (group_mild) or during 2 weeks (group_low). Treatment was administered orally and prepared as food-admix. This mode of administration was preferred over oral gavage to reduce stress to the animals, avoid dosing errors and minimize handling. Pioglitazone (sufficient for 90 kg food) was dissolved in 18 liters of water. For the three treatment groups of 10 rats each, 6 liters of solution was combined with 30 kg of the diabetogenic diet (KLIBA 2437 with 7% of fat) or 12 liters were mixed with 60 Kg of the chow diet (Kliba 3436). The food was carefully dried at a temperature not exceeding 40° C. and then pelleted. […] The graphs and tables present the data according to expected daily dose. […] Body weight and food consumption were recorded with an on-line data acquisition system ([…]) using electronic balances."}}}
{"smiles": "CCc1ccc(CCOc2ccc(CC3SC(=O)NC3=O)cc2)nc1.Cl", "note": "(racemic) [Pioglitazone, (±)-5-[[4-[2-(5-ethyl-2-pyridinyl)ethoxy]phenyl]methyl]-2,4-]", "values": [{"measurement": "improvement of glucose tolerance (AUC) compared to vehicle", "setting": "ZDF rats [1]; group_full, OGTT after 6 weeks of treatment", "result": 31, "unit": "%"}, {"measurement": "HOMA (insulin resistance index)", "setting": "ZDF rats [1]; group_full", "result": "14.1±2.7"}, {"measurement": "fasting insulin levels", "setting": "ZDF rats [1]; group_full", "result": "2.0 ± 0.4", "unit": "ng/mL"}, {"measurement": "FBG", "setting": "ZDF rats [1]; group_full, after 7 weeks of treatment", "result": "6.7 ± 0.9", "unit": "mM"}, {"measurement": "AUC reduced compared to vehicle", "setting": "ZDF rats [1]; group_low, OGTT after 6 weeks of treatment", "result": 36, "unit": "%"}, {"measurement": "glucose excursion AUC", "setting": "ZDF rats [1]; group_low, OGTT after 6 weeks of treatment, ZL 779±15", "result": "1000±48"}, {"measurement": "fasting insulin levels", "setting": "ZDF rats [1]; group_low", "result": 1.7, "unit": "ng/mL"}, {"measurement": "HOMA (insulin resistance index)", "setting": "ZDF rats [1]; group_low, ZL 2.0±0.1", "result": "9.4±0.8"}, {"measurement": "FBG", "setting": "ZDF rats [1]; group_low, vehicle 6.9±0.4, ZL 4.3±0.0", "result": "5.1 ± 0.1", "unit": "mM"}, {"measurement": "improvement of glucose tolerance (AUC) compared to vehicle", "setting": "ZDF rats [1]; group_mild, OGTT after 6 weeks of treatment", "result": 29, "unit": "%"}, {"measurement": "HOMA (insulin resistance index)", "setting": "ZDF rats [1]; group_mild", "result": "10.9±1.9"}, {"measurement": "fasting insulin levels", "setting": "ZDF rats [1]; group_mild", "result": "1.6 ± 0.3", "unit": "ng/mL"}, {"measurement": "FBG", "setting": "ZDF rats [1]; group_mild, after 7 weeks of treatment", "result": "6.6 ± 1.3", "unit": "mM"}, {"measurement": "plasma total cholesterol levels", "setting": "ZDF rats [2]; any of the treatment groups", "result": "did not change"}, {"measurement": "reduction of plasma triglyceride levels compared to vehicle", "setting": "ZDF rats [2]; group_full (fully diabetic ZDF rats)", "result": "69.5±5.2", "unit": "%"}, {"measurement": "HbA1C", "setting": "ZDF rats [2]; group_full ZDF rats, 10 mg/kg", "result": "significant reduction"}, {"measurement": "blood glucose levels", "setting": "ZDF rats [2]; group_full ZDF rats, apparent after 2 weeks, partially maintained, 10 mg/kg", "result": "strongly reduced"}, {"measurement": "hyperinsulinemia", "setting": "ZDF rats [2]; group_full ZDF rats, at the beginning of treatment, effect gone after 5 weeks", "result": "significantly reduced"}, {"measurement": "average plasma TG level", "setting": "ZDF rats [2]; group_full", "result": "2.8 ± 0.5", "unit": "mM"}, {"measurement": "plasma TG levels", "setting": "ZDF rats [2]; group_full, compared with ZL 1.1±0.1", "result": "2.9 ± 0.6", "unit": "mM"}, {"measurement": "plasma NEFA levels", "setting": "ZDF rats [2]; group_full, data not shown", "result": "moderate improvement"}, {"measurement": "hypertriglyceridemia", "setting": "ZDF rats [2]; group_low", "result": "almost completely and immediately normalized"}, {"measurement": "development of hyperglycaemia and increase in HbA1c", "setting": "ZDF rats [2]; group_low (moderately diabetic ZDF rats), values similar to untreated ZL rats", "result": "fully prevented"}, {"measurement": "average plasma TG level", "setting": "ZDF rats [2]; group_low", "result": "1.6 ± 0.1", "unit": "mM"}, {"measurement": "insulin levels", "setting": "ZDF rats [2]; group_low, end of the 7 week treatment period, ZL 0.8±0.1", "result": "2.1 ± 0.2", "unit": "ng/mL"}, {"measurement": "hyperinsulinemia", "setting": "ZDF rats [2]; group_low, starting at week 2 of treatment, maintained until end of study", "result": "strongly reversed"}, {"measurement": "increase in BW versus vehicle", "setting": "[3]", "result": "≈ 30%"}]}
